33 compounds from patent US20230067910A1, “NOVEL COMPOUNDS FOR THE DIAGNOSIS, TREATMENT AND PREVENTION OF DISEASES ASSOCIATED WITH THE AGGREGATION OF ALPHA-SYNUCLEIN” (MODAG GMBH, priority 2019, published 2023) can be followed below.

The assay has as its target T1, alpha-synuclein (sonicated fibrils) (Homo sapiens, UniProt P37840).
T1 construct: made in house; host or cells: E. coli
Briefly: Modified competition binding assay, protocol 3b, reference ligand [3H]-compound 2. As to conditions: Table 5, reference ligand [3H]-compound 2 (1 nM). The procedure:
Alpha-synuclein and tau46 were purified from E. coli according to established protocols (Nuscher B, et al., J. Biol. Chem., 2004; 279(21):21966-75), Aβ1-42 was obtained from rPeptide, Watkinsville, Ga., USA. Fibrils were prepared by aggregation of recombinant protein via constant agitation. In detail, 70 μM of alpha-synuclein mixed with 100 mM NaCl in 50 mM Tris, pH 7.0+0.02% NaN3 were incubated at 1,400 rpm, 37° C. for 96 h. 10 μM of tau46 were incubated with 0.03 mg/ml heparin in 50 mM Tris, pH=7.0 at 1,000 rpm, 37° C. for 72 h. Aβ1-42 was solved in 20 mM NaPi, pH=8.0+0.2 mM EDTA+0.02% NaN3 (Deeg A A, et al., Biochim. Biophys. Acta, 2015; 1850(9): 1884-90; Goedert M, et al. Nature, 1996; 383(6600): 550-3).
For competition binding experiments, a fixed concentration of recombinant αSYN fibrils (sonicated, 15 nM/well) was incubated with 1 nM [^3H]-compound 1 or [3H]-compound 2 and decreasing concentrations of a serial dilution of non-labeled competitor (serial dilution 1:4 or 1:3.5 or 1:3 providing the concentration ranges of non-labeled competitor 1 μM-[…] 1 μM-4 nM or 1 μM-[…], respectively) in 30 mM Tris-HCl, 10% ethanol, 0.05% Tween20, pH 7.4 in a total volume of 200 μL/well. Plates were incubated for 4.5 hours at RT covered by removable sealing tape (PerkinElmer, Waltham, Mass., USA).
Filtration and readout were performed as described for saturation binding assays. [^3H]-labeled ligand binding [in CMP] was plotted against increasing competitor concentrations and data points were fitted using non-linear regression analysis to calculate the IC50 and Ki values (GraphPad Software, Inc., Version 7.03, La Jolla (Calif.), USA). In the competition binding assay with sonicated recombinant αSYN fibrils, the calculation of Ki values was done based on KD values of 0.6 nM and 0.2 nM for compound 1 and compound 2, respectively.
The fibril competition assay provides Ki values. Ki is a quantitative measure that represents the concentration of the non-radioactive tested compound (competitor ligand) required to replace 50% of a reference compound, in this case [H]-compound 1 (1 nM) or [H]-compound 2 (1 nM), which is bound to the target structures (1 nM), in our case recombinant alpha-synuclein and tau46 fibrils. This assay is suitable for a screening of non-radioactive ligands.
As for “4-[5-(2,6-dichloropyridin-4-yl)-1H-pyrazol-3-yl]-N,N-dimethylaniline [Compound 42]”, the Ki (as a rule, a dissociation constant, usually derived from enzyme kinetics or from competition with a known ligand) is 23 nM.
The result for “6-[5-(2-bromopyridin-4-yl)-1H-pyrazol-3-yl]-1,3-dioxolo[4,5-b]pyridine [Compound 32]” reads 18 nM; that for `[2H]C([2H])([2H])Nc1ccc(-c2cc(-c3ccnc(Br)c3)[nH]n2)cc1` [Compound 21, 4-[5-(2-bromopyridin-4-yl)-1H-pyrazol-3-yl]-N-(^2H3)methylaniline], 0.3 nM.
The result for `CNc1ccc(-c2cc(-c3ccnc(Cl)c3)[nH]n2)cc1` [Compound 22, 4-[5-(2-chloropyridin-4-yl)-1H-pyrazol-3-yl]-N-methylaniline] reads 0.3 nM; that for `CCNc1ccc(-c2cc(-c3ccnc(Br)c3)[nH]n2)cc1` [Compound 23, 4-[5-(2-bromopyridin-4-yl)-1H-pyrazol-3-yl]-N-ethylaniline], 0.5 nM; that for `CNc1ccc(-c2cc(-c3ccnc(F)c3)[nH]n2)cc1` [Compound 24, 4-[5-(2-fluoropyridin-4-yl)-1H-pyrazol-3-yl]-N-methylaniline], 0.8 nM.
The result for `FCCNc1ccc(-c2cc(-c3ccnc(Br)c3)[nH]n2)cc1` [Compound 25, 4-[5-(2-bromopyridin-4-yl)-1H-pyrazol-3-yl]-N-(2-fluoroethyl)aniline] reads 0.7 nM.
Turning to `CN1CCN(c2ccc(-c3cc(-c4ccnc(Br)c4)[nH]n3)cc2)CC1` [Compound 26, 1-{4-[5-(2-bromopyridin-4-yl)-1H-pyrazol-3-yl]phenyl}-4-methylpiperazine], the Ki amounted to 1 nM.
The result for `Fc1cc(-c2cc(-c3ccc(N4CCOCC4)cc3)n[nH]2)ccn1` [Compound 27, 4-{4-[5-(2-fluoropyridin-4-yl)-1H-pyrazol-3-yl]phenyl}morpholine] reads 1.3 nM; that for `Clc1c(-c2ccc3c(c2)OCO3)n[nH]c1-c1ccnc(Br)c1` [Compound 28, 4-[3-(1,3-benzodioxol-5-yl)-4-chloro-1H-pyrazol-5-yl]-2-bromopyridine], 4.2 nM.
The result for `Brc1cc(-c2c[nH]c(-c3ccc4c(c3)OCO4)n2)ccn1` [Compound 29, 4-[2-(1,3-benzodioxol-5-yl)-1H-imidazol-4-yl]-2-bromopyridine] reads 6.3 nM; that for `Brc1cc(-c2nc(-c3ccc4c(c3)OCO4)n[nH]2)ccn1` [Compound 30, 4-[3-(1,3-benzodioxol-5-yl)-1H-1,2,4-triazol-5-yl]-2-bromopyridine], 12 nM.
Turning to `CN(C)c1ccc(-c2c[nH]c(-c3ccnc(Br)c3)n2)cc1` [Compound 31, 4-[2-(2-bromopyridin-4-yl)-1H-imidazol-4-yl]-N,N-dimethylaniline], the Ki was 13 nM.
The result for `Brc1cc(-c2nc(-c3ccc4c(c3)OCO4)c[nH]2)ccn1` [Compound 33, 4-[4-(1,3-benzodioxol-5-yl)-1H-imidazol-2-yl]-2-bromopyridine] reads 33 nM; that for `Brc1cccc(-c2cc(-c3cnc4c(c3)OCO4)n[nH]2)c1` [Compound 34, 6-[5-(3-bromophenyl)-1H-pyrazol-3-yl]-1,3-dioxolo[4,5-b]pyridine], 41 nM; that for `Clc1cc(-c2nc(-c3ccc(N4CCCC4)cc3)c[nH]2)ccn1` [Compound 35, 2-chloro-4-{4-[4-(pyrrolidin-1-yl)phenyl]-1H-imidazol-2-yl}pyridine], 168 nM.
Take `CNc1ccc(-c2cc(-c3cncc(Cl)n3)[nH]n2)cc1` [Compound 36, 4-[5-(6-chloropyrazin-2-yl)-1H-pyrazol-3-yl]-N-methylaniline]: the Ki was 12 nM.
The result for `CNc1ccc(-c2cc(-c3cc(Br)nc(Br)c3)[nH]n2)cc1` [Compound 37, 4-[5-(2,6-dibromopyridin-4-yl)-1H-pyrazol-3-yl]-N-methylaniline] reads 16 nM.
The result for `CNc1ccc(-c2cc(-c3cc(C)nc(Br)c3)[nH]n2)cc1` [Compound 38, 4-[5-(2-bromo-6-methylpyridin-4-yl)-1H-pyrazol-3-yl]-N-methylaniline] reads 113 nM; that for `CNc1ccc(-c2cc(-c3cnnc(Cl)c3)[nH]n2)cc1` [Compound 39, 4-[5-(6-chloropyridazin-4-yl)-1H-pyrazol-3-yl]-N-methylaniline], 4.2 nM.
Take `CNc1ccc(-c2cc(-c3ccnc(Cl)n3)[nH]n2)cc1` [Compound 40, 4-[5-(2-chloropyrimidin-4-yl)-1H-pyrazol-3-yl]-N-methylaniline]: the Ki was found to be 3.9 nM.
On to `CNc1ccc(-c2cc(-c3cccc(Cl)n3)[nH]n2)cc1` [Compound 41, 4-[5-(6-chloropyridin-2-yl)-1H-pyrazol-3-yl]-N-methylaniline], for which the Ki was found to be 14 nM.
The result for `CN(C)c1ccc(-c2cc(-c3cc(Cl)ncn3)[nH]n2)cc1` [Compound 43, 4-[5-(6-chloropyrimidin-4-yl)-1H-pyrazol-3-yl]-N,N-dimethylaniline] reads 0.5 nM; that for `CN(C)c1ccc(-c2nc(-c3ccnc(Br)c3)n[nH]2)cc1` [Compound 44, 4-[3-(2-bromopyridin-4-yl)-1H-1,2,4-triazol-5-yl]-N,N-dimethylaniline], 0.6 nM; that for `CN(C)c1ccc(-c2nc(-c3ccnc(Br)c3)c[nH]2)cc1` [Compound 45, 4-[4-(2-bromopyridin-4-yl)-1H-imidazol-2-yl]-N,N-dimethylaniline], 0.2 nM.
The result for `Cc1cc(-c2cc(-c3ccc4c(c3)OCO4)n[nH]2)cc(Br)n1` [Compound 47, 4-[3-(1,3-benzodioxol-5-yl)-1H-pyrazol-5-yl]-2-bromo-6-methylpyridine] reads 97 nM.
The result for `Clc1cc(-c2cc(-c3ccc4c(c3)OCO4)n[nH]2)c(Cl)nn1` [Compound 48, 4-[5-(1,3-benzodioxol-5-yl)-1H-pyrazol-3-yl]-3,6-dichloropyridazine] reads 59 nM; that for `Fc1cc(-c2cc(-c3ccc(N4CCNCC4)cc3)n[nH]2)ccn1` [Compound 49, 1-{4-[5-(2-fluoropyridin-4-yl)-1H-pyrazol-3-yl]phenyl}piperazine], 61 nM; that for `FCCN1CCN(c2ccc(-c3cc(-c4ccnc(Cl)c4)[nH]n3)cc2)CC1` [Compound 50, 1-{4-[5-(2-chloropyridin-4-yl)-1H-pyrazol-3-yl]phenyl}-4-(2-fluoroethyl)piperazine], 0.9 nM.
For `COCCN1CCN(c2ccc(-c3cc(-c4ccnc(Br)c4)[nH]n3)cc2)CC1` [Compound 51, 1-{4-[5-(2-bromopyridin-4-yl)-1H-pyrazol-3-yl]phenyl}-4-(2-methoxyethyl)piperazine], the Ki was 2.7 nM.
The result for `FC1CCN(c2ccc(-c3cc(-c4ccnc(Br)c4)[nH]n3)cc2)CC1` [Compound 52, 2-bromo-4-{3-[4-(4-fluoropiperidin-1-yl)phenyl]-1H-pyrazol-5-yl}pyridine] reads 3.1 nM; that for `CN(C)c1ccc(-c2cc(-c3ccnc(Cl)c3)[nH]n2)cc1` [Compound 53, 4-[5-(2-chloropyridin-4-yl)-1H-pyrazol-3-yl]-N,N-dimethylaniline], 0.8 nM.
The result for `Fc1ccnc(-c2cc(-c3ccc4c(c3)OCO4)n[nH]2)c1` [Compound 54, 2-[3-(1,3-benzodioxol-5-yl)-1H-pyrazol-5-yl]-4-fluoropyridine] reads 8.4 nM.
